Key:
SOD1^G93A/HB9::GFP MNs [1] = test: Mouse MN survival assay, trophic factor withdrawal; assay type: cell-based; conditions: for survival of SOD1^G93A/HB9::GFP MNs: trophic factors removed and compound added day 4, fixed day 7
Protocol: For the small molecule screen or for standard survival assays, freshly dissociated EBs were plated at a density of 8,000 GFP^+ cells (384-well) or 30.000 GFP+ cells (96-well) per well. Four days later (day 4), trophic factors (BDNF, GDNF and CNTF) were removed, and individual compounds were added to the wells. For the primary screen each was tested at three concentrations (0.1 μM, 1 μM and 10 μM) in duplicate. […] The number of MNs surviving was analyzed by counting the remaining GFP^+ cells in the whole well. Total cell numbers were obtained by counting Hoechst-positive nuclei. A size threshold was set based on control cultures to eliminate apoptotic MNs Unless stated otherwise, survival is measured as fold-increase compared to cultures maintained without trophic factors.
For long-term MN survival assays, MN cultures were fed with fresh medium and compounds every two days until fixation and quantification as above.
All primary hits were subsequently tested in a nine-point dose-response assay, using the same screening protocol.

PAK 4, 5 and 6 = conditions: cited from earlier work
Hb9:GFP MNs = test: MN survival in co-culture with wild-type or SOD1^G93A astrocytes; assay type: cell-based, mouse; conditions: nine days of compound treatment, trophic factors present
Protocol: FIGS. 3A and 3B show line graphs showing effects of kenpaullone and GSK-3 inhibitor VIII on MN death induced by treatment with a PI3K inhibitor. LY294002 was added to cultures on day 4, with or without concurrent treatment with 10 μM kenpaullone or 10 μM GSK-3 inhibitor VIII. Cells were fixed on day 7 for survival analysis. Survival is measured with respect to cells treated with DMSO alone. FIG. 3C is a bar graph showing that Kenpaullone also blocks death of MNs accelerated by co-culture with SOD1^G93A astrocytes. Hb9:GFP MNs were FACS sorted and plated on a confluent monolayer of wild-type or SOD1^G93A astrocytes. Kenpaullone was added to cultures 24 hrs later and was refreshed every three days by replacing half of the old medium with fresh medium containing IX concentration of the compound. Cells were fixed after nine days of compound treatment and MN survival was determined. Trophic factors were present throughout the experiment. Data are presented as percent survival normalized to that of DMSO treated MNs plated on wild-type astrocytes. Again, kenpaullone was effective in decreasing the extent of death. * p<0.05, ** p<0.01, *** p<0.001 (Student's t test, two-tailed). Data are presented as mean±SEM. […]

HB9::GFP MNs [2] = test: Image analyses of synapses and neurite arborization; assay type: cell-based, mouse; conditions: 5 μM
Description: (§1) For synapse analysis, the inventors quantified imaging data using the PerkinElmer Acapella software spot detection algorithm. Synapses were defined as the overlap of presynaptic and postsynaptic spots on MNs. On each GFP^+ cell, we first drew a circle around the cell body with a diameter of approximately two cell body diameters, similar to that described by Ullian et al. (Schwann cells and astrocytes induce synapse formation by spinal motor neurons in culture. Mol Cell Neurosci., 2004, 25: 241-251) as the area for spot detection. Within each circle, presynaptic sites were detected using a primary antibody against synapsin and a secondary antibody conjugated with Alexa-632. Candidate spots that met an average intensity threshold were accepted as legitimate presynaptic punctac. Then we expanded the radius of each presynaptic puncta by 1 pixel, since the pre- and post-synaptic spots often were slightly offset, especially at higher magnifications, and measured the intensity in the postsynaptic channel, using a PSD95 primary antibody and a secondary antibody conjugated with Alexa-546. Postsynaptic punctae that exceeded the threshold mean intensity threshold were accepted, permitting us to define “colocalized” spots, or synapses.
(§2) The neurite tracing method in Acapella software is based on methods developed at CSIRO at perkinelmer.com/pages/020/cellularimaging/assaysneuriteoutgrowth.xhtm. The cell bodies of MNs were located by expression of HB9:GFP, and the neurites were also detected by GFP fluorescence. The algorithm measured the lengths and fluorescence intensities of each neurite and the branching level (primary, secondary, etc). The total lengths of neurites and the numbers, lengths and fluorescent intensities of primary and secondary branches were measured based on selected threshold parameters.

SOD1^G93A/HB9::GFP MNs [3] = test: as above; assay type: cell-based, mouse; conditions: 5 μM
Description: as §1, §2

[4] = system: site-specific phosphorylation of kinases in MN cultures; test: Phospho-Kinase Antibody Array; assay type: cell-based, mouse
Protocol: Freshly dissociated HB9::GFP EBs were plated at a density of 3 million GFP+ cells/10 cm dish and trophic factor withdrawal/compound addition was performed on day 4. Protein lysates were generated 6 and 24 h after treatment using RIPA buffer supplemented with protease and phosphatase inhibitors (Pierce Biotechnology). Equal amounts of total protein from treatment groups were added to Phospho-Kinase Antibody Arrays (R&D Systems, #ARY003). Arrays were prepared following the manufacturer's instructions and developed with SuperSignal West Pico Chemiluminescent Substrate (Pierce Biotechnology). Background signal was subtracted and duplicate spot pixel densities were averaged using QuantityOne software (BioRad).

HB9::GFP MNs [5] = test: Whole-cell voltage-clamp and current-clamp recordings; assay type: cell-based, mouse; conditions: −TF/+kenpaullone, 3 days
Protocol: Images show synapsin (yellow) and PSD95 (red) staining on a kenpaullone-treated MN. Arrows indicate examples of synapses on MNs. Data are presented as mean±SEM. Scale bar represents 50 μm. […] HB9::GFP MNs treated for 3 days in the absence of trophic factors (−TF/+kenpaullone) were compared to MNs that were grown in complete medium (+TF) in terms of functional sodium and potassium currents, action potentials, response to excitatory neurotransmitter (kainate, 100 μM), and response to inhibitory neurotransmitter (GABA, 100 μM).
Whole-cell voltage-clamp and current-clamp recordings were performed as described (Son et al., 2011).
To examine whether kenpaullone could maintain neuronal health during trophic factor withdrawal, the inventors also compared the electrophysiological properties of MNs grown in complete medium (+TF) with those of cells in trophic factor-deficient (−TF) medium with or without kenpaullone supplementation (FIGS. 4C and 10G). First of all, when the inventors attempted to record from cells grown in medium lacking both trophic factors and kenpaullone, the inventors were unable to obtain stable recordings despite a significant number of patch attempts. […] The inventors also recorded responses to excitatory neurotransmitters, such as kainate, and Inhibitory transmitters, such as GABA, in the two sets of MNs.

[6] = trophic factors removed day 4, analyzed day 21

O=C1Cc2c([nH]c3ccc(Br)cc23)-c2ccccc2N1 [Kenpaullone]
number of SOD1^G93A/HB9::GFP MNs in medium with kenpaullone (SOD1^G93A/HB9::GFP MNs [1]; complete medium (+TF), day 28): 8 times | long-term survival of MNs without trophic factors (SOD1^G93A/HB9::GFP MNs [1]; days 7, 14, 21 and 28): improved survival | MN death in complete medium (+TF) (SOD1^G93A/HB9::GFP MNs [1]; first two weeks): reduced the death | survival of SOD1^G93A/HB9::GFP MNs (SOD1^G93A/HB9::GFP MNs [1]): strong effects | survival of SOD1^G93A/HB9::GFP MNs (SOD1^G93A/HB9::GFP MNs [1]; listed as kenpaullone): potent survival promoting effects | inhibition of PAK 4, 5 and 6 (PAK 4, 5 and 6): inhibits | MN survival on SOD1^G93A astrocytes (Hb9:GFP MNs): improved survival | MN survival on wild-type astrocytes (Hb9:GFP MNs): improved survival | number of synapses per MN (HB9::GFP MNs [2]; no trophic factors, day 21): dramatic increase | neuritic network of MNs (HB9::GFP MNs [2]; [6]): maintain the neuritic network of these cells at levels seen in trophic factor supplemented cultures | synapses per MN (SOD1^G93A/HB9::GFP MNs [3]; no trophic factors, day 21): supported their ability to maintain morphological synapses | neurite growth of MNs (SOD1^G93A/HB9::GFP MNs [3]; [6]): allowing neurite growth beyond that seen in cells kept in trophic factors | relative phosphorylation of GSK-3 [4]: significant reduction | relative phosphorylation of c-Jun [4]: reduction | relative phosphorylation of cJun N-terminal kinase (JNK) [4]: reduction | electrophysiological properties compared with MNs in complete medium (+TF) (HB9::GFP MNs [5]): no significant difference

Reference: patent US20160082015A1, “METHODS, COMPOSITIONS AND KITS FOR PROMOTING MOTOR NEURON SURVIVAL AND TREATING AND DIAGNOSING NEURODEGENERATIVE DISORDERS” (PRESIDENT AND FELLOWS OF HARVARD COLLEGE, priority 2013, published 2016)
